From ChEMBL document CHEMBL1131647, “Enzymatic synthesis of a modified phospholipid and its evaluation as a substrate for B. cereus phospholipase C” (Bioorg Med Chem Lett, 1998)

Assays:
[1] = system: Phospholipase C (Bacillus cereus); assay: Compound was evaluated for its […] activity against phospholipase C from Bacillus cereus
[2] = system: Phospholipase C (Bacillus cereus); assay: Critical Micellar Concentration for the compound was calculated for phospholipase C from Bacillus cereus

Work on `CCCCCC(=O)OCC(COP(=O)([O-])OCC[N+](C)(C)C)OC(=O)CCCCC` (stereo not drawn) yielded a k cat [1] of 1000 s⁻¹.

`CCCCCC(=O)OCC(COP(=O)(O)OCCC(C)(C)C)OC(=O)CCCCC` (stereo not drawn) showed a k cat [1] of 5.2 s⁻¹ and a CMC [2] of 9.5 mM.
